The values below come from US7825146B2, “Sulfonamide derivative having isoxazole ring” (Shionogi & Co., Ltd., priority 2003, dated 2010).

Assay type in all cases: biochemical
One experiment deals with T1, MMP-13 (Homo sapiens, UniProt P45452).
T1 construct: catalytic domain (^104Tyr˜^267Gly) was amplified with RT-PCR; His-tag; enterokinase digestion-site; made in house
Nature of the experiment: Assay for inhibitory activities on MMPs (fluorogenic MOCAc peptide substrate): MMP-13. The conditions noted are these: Table 40. As to the method: (§1) In regard to MMP-13, mRNA was prepared from carcinoma cell SW1353 derived from human cartilage stimulate by IL-1, TNF and catalytic domain (^104Tyr˜^267Gly) was amplified with RT-PCR. This was cloned in Escherichia. coli expression vector pTrc99AHE inserted with His-tag sequence and enterokinase digestion-site, induced and expressed by IPTG (Isopropyl-β-D-thiogalactopyranoside) and expressed in a insoluble fraction. Isolation of MMP-13 from an insoluble fraction was carried out by dissolving in modifier (6M urea) by a usual method and purification with metal chelate chromatography (Ni Chelateing Sepharose). And then removing modifier (6M urea) with dialyze and refolding of the enzyme spontaneously gave activated MMP-13.
(§2) The enzymatic activity on MMPs was analyzed by the method described in “C. Graham Knight, Frances Willenbrock and Gillian Murphy: A novel coumarin-labelled peptide for sensitive continuous assays of the matrix metalloproteinases: FEBS LETT., 296, (1992), 263-266”. The substrate: MOCAc-Pro-Leu-Gly-Leu-A2Pr(DNP)-Ala-Arg-NH2 was purchased from Peptide Institute, Inc., Osaka, Japan. The measurement of the inhibitory activities (IC50) was carried out by the following four methods; • (A) Reaction with substrate, enzyme (MMPs) and inhibitor • (B) Reaction with substrate and inhibitor, without enzyme • (C) Reaction with substrate and enzyme (MMPs), without inhibitor • (D) Reaction with substrate only IC50 values were calculated by using the following formula and each fluorescence values of above four methods (A to D).
(§3) The value of inhibitory activity against MMP-2, MMP-8, MMP-9, MMP-12, and MMP-13 measured by above mentioned methods are shown in Table 36, 37, 38, 39, and 40 respectively.

The target of the next experiment is T2, MMP-12 (Homo sapiens, UniProt P39900).
T2 construct: In regard to MMP-12, catalytic domain(^100Phe˜^263Gly) was amplified with RT-PCR; His-tag; enterokinase digestion-site; made in house
Nature of the experiment: Assay for inhibitory activities on MMPs (fluorogenic MOCAc peptide substrate): MMP-12. The settings on record: catalytic domain 100Phe-263Gly. As to the method: as §1, with “MMP-12,” for “MMP-13, mRNA was prepared from carcinoma cell SW1353 derived from human cartilage stimulate by IL-1, TNF and”, “domain(^100Phe˜^263Gly)” for “domain (^104Tyr˜^267Gly)”, “RT-PCR from Human Placenta Total RNA.” for “RT-PCR.”, “MMP-12” for “MMP-13”, “dialysis” for “dialyze”, “MMP-12.” for “MMP-13.”
as §2, §3

The target of the next experiment is T3, MMP-8 (Homo sapiens, UniProt P22894).
T3 construct: In regard to MMP-8, catalytic domain (^99Phe˜^262Gly) was amplified with PCR; His-tag; enterokinase digestion-site; made in house
Description: Assay for inhibitory activities on MMPs (fluorogenic MOCAc peptide substrate): MMP-8. The settings on record: catalytic domain 99Phe-262Gly.
Text: In regard to MMP-8, catalytic domain (^99Phe˜^262Gly) was amplified with PCR using commercial available Human Bone Marrow cDNA. This was cloned in Escherichia. coli expression vector pTrc99AHE inserted with His-tag sequence and enterokinase digestion-site, induced and expressed by IPTG (Isdpropyl-β-D-thiogalactopyranoside) and expressed in a insoluble fraction (Thau F. Ho, M. Walid Qoronfleh, Robert C. Wahl, Trica A. Pulvino, Karen J. Vavra, Joe Falvo, Tracey M. Banks, Patricia G. Brake and Richard B. Ciccarelli: Gene expression, purification and characterization of recombinant human neutrophil collagenase. Gene 146, (1994) 297-301, Prepared by the a improved method of this material). Isolation of MMP-8 from an insoluble fraction was carried out by dissolving in modifier (6M urea) by a usual method and purification with metal chelate chromatography. And then removing modifier (6M urea) with dialysis and refolding of the enzyme spontaneously gave activated MMP-8.
as §2, §3

By IC50 is commonly meant the concentration that gives 50% inhibition. A higher IC50 goes with a need for much substance.

T2 sequence (P39900 100-263): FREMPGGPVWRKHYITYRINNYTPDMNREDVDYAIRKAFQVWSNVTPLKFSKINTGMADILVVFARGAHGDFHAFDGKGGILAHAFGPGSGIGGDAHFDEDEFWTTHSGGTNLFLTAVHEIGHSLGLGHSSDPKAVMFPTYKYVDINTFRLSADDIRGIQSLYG
T3 sequence (P22894 99-262): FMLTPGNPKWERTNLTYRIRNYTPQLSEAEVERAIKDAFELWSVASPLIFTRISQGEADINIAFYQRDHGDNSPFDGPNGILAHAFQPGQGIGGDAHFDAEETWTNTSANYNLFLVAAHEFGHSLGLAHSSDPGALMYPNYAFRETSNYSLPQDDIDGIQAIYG

On MMP-13, `CCc1ccc(-c2cc(-c3ccc(S(=O)(=O)N[C@@H](C(=O)O)C(C)C)cc3)on2)cc1` [Example A-26] gave an IC50 of 0.000943 µM.

As for `COc1ccc(-c2cc(-c3ccc(S(=O)(=O)N[C@@H](C(=O)O)C(C)C)cc3)on2)cc1Cl` [Example A-56], the half-maximal inhibitory concentration (IC50) on MMP-12 is 0.000898 µM; against MMP-8 it was 0.00397 µM.

Consider `COc1ccc(-c2cc(-c3ccc(S(=O)(=O)N[C@@H](CC(C)C)C(=O)O)cc3)on2)cc1F` [Example A-79], for which the IC50 was found to be 0.000622 µM on MMP-12 and 0.00111 µM at MMP-8.

At MMP-13, `CSCC[C@@H](NS(=O)(=O)c1ccc(-c2cc(-c3ccc(C(C)C)cc3)no2)cc1)C(=O)O` [Example A-107] displayed a 50% inhibitory concentration (IC50) of 0.000658 µM.

Take `CSCC[C@@H](NS(=O)(=O)c1ccc(-c2cc(-c3ccc(OC(F)(F)F)cc3)no2)cc1)C(=O)O` [Example A-108]: the IC50 at MMP-12 worked out at 0.000764 µM; against MMP-13, 0.000635 µM.

For `CC(C)c1ccc(-c2cc(-c3ccc(S(=O)(=O)N[C@H](Cc4c[nH]c5ccccc45)C(=O)O)cc3)on2)cc1` [Example A-111], the IC50 at MMP-13 is 0.000465 µM.

`CSc1ccc(-c2cc(-c3ccc(S(=O)(=O)N[C@H](C(=O)O)C(C)C)cc3)no2)cc1` [Example C-11]: the IC50 against MMP-12 came to 0.000289 µM; on MMP-13, 0.000739 µM.

`CCc1ccc(-c2cc(-c3ccc(S(=O)(=O)N[C@H](C(=O)O)C(C)C)cc3)no2)cc1` [Example C-13]: the results for the IC50 on MMP-12 and against MMP-13 were 0.000201 µM and 0.000757 µM, respectively.

In the case of `CC(C)c1ccc(-c2cc(-c3ccc(S(=O)(=O)N[C@H](C(=O)O)C(C)C)cc3)no2)cc1` [Example C-16], the IC50 against MMP-12 was found to be 0.000287 µM; on MMP-13, 0.000403 µM.

Take `COc1ccc(-c2cc(-c3ccc(S(=O)(=O)N[C@H](C(=O)O)C(C)C)cc3)no2)cc1` [Example C-19]: the IC50 against MMP-12 amounted to 0.000447 µM; against MMP-8, 0.00397 µM.

For `CC(C)[C@H](NS(=O)(=O)c1ccc(-c2cc(-c3ccc(OC(F)(F)F)cc3)on2)cc1)C(=O)O` [Example C-26], the IC50 on MMP-12 came to 0.000148 µM; on MMP-13, 0.000884 µM.

`CC(C)[C@@H](NS(=O)(=O)c1ccc(-c2cc(-c3ccc(C(F)(F)F)cc3)on2)cc1)C(=O)O` [Example C-27]: the figures for the IC50 against MMP-12 and at MMP-13 were 0.000316 µM and 0.000758 µM, respectively.

Turning to `Cc1ccc(-c2cc(-c3ccc(S(=O)(=O)N[C@H](C(=O)O)C(C)C)cc3)no2)s1` [Example C-30], the IC50 was 0.000758 µM on MMP-12 and 0.00124 µM at MMP-8.

Regarding `CC(C)[C@H](NS(=O)(=O)c1ccc(-c2cc(-c3ccc(Cl)s3)on2)cc1)C(=O)O` [Example C-34], the figures for the IC50 at MMP-12 and against MMP-8 were 0.000866 µM and 0.00177 µM, respectively.

As to `CC(C)[C@H](NS(=O)(=O)c1ccc(-c2cc(-c3ccc(Cl)c(F)c3)on2)cc1)C(=O)O` [Example C-37], the IC50 at MMP-12 was determined as 0.000172 µM; against MMP-8, 0.00433 µM.

Consider `CC(C)[C@H](NS(=O)(=O)c1ccc(-c2cc(-c3ccc(Cl)c(Cl)c3)on2)cc1)C(=O)O` [Example C-41], for which the half-inhibitory concentration (IC50) is 0.000294 µM on MMP-12 and 0.00379 µM against MMP-8.

On to `CC(C)[C@@H](NS(=O)(=O)c1ccc(-c2cc(-c3ccc4c(c3)OCO4)on2)cc1)C(=O)O` [Example C-44], for which the IC50 at MMP-12 is 0.000649 µM; on MMP-8 it was 0.00359 µM.

Turning to `CC(C)[C@H](NS(=O)(=O)c1ccc(-c2cc(-c3ccc4c(c3)OCO4)on2)cc1)C(=O)O` [Example C-45], the IC50 against MMP-12 is 0.000641 µM; against MMP-8, 0.00366 µM.

Take `CC(C)[C@@H](NS(=O)(=O)c1ccc(-c2cc(-c3ccc4c(c3)CCO4)on2)cc1)C(=O)O` [Example C-47]: the IC50 on MMP-12 turned out to be 0.000264 µM; against MMP-8, 0.00107 µM.

Take `CC(C)[C@H](NS(=O)(=O)c1ccc(-c2cc(-c3ccc4c(c3)CCO4)on2)cc1)C(=O)O` [Example C-48]: the IC50 on MMP-12 was determined as 0.0002 µM; against MMP-8 it was 0.000892 µM.

Regarding `CC(C)C[C@@H](NS(=O)(=O)c1ccc(-c2cc(-c3ccc(C(C)C)cc3)on2)cc1)C(=O)O` [Example C-59], the IC50 at MMP-13 came to 0.000889 µM.

Take `CC(C)C[C@H](NS(=O)(=O)c1ccc(-c2cc(-c3ccc(C(C)C)cc3)on2)cc1)C(=O)O` [Example C-60]: the IC50 came out at 0.000335 µM against MMP-12 and 0.000919 µM at MMP-13.

On MMP-8, `Cc1ccc(-c2cc(-c3ccc(S(=O)(=O)N[C@H](CC(C)C)C(=O)O)cc3)no2)s1` [Example C-74] returned an IC50 of 0.00416 µM.

`Cc1ccc(-c2cc(-c3ccc(S(=O)(=O)N[C@@H](CC(C)C)C(=O)O)cc3)no2)s1` [Example C-75]: the IC50 amounted to 0.000677 µM on MMP-12 and 0.00198 µM on MMP-8.

Regarding `CC(C)C[C@@H](NS(=O)(=O)c1ccc(-c2cc(-c3ccc(Cl)s3)on2)cc1)C(=O)O` [Example C-78], the IC50 at MMP-8 is 0.00463 µM.

For the compound `CC(C)C[C@H](NS(=O)(=O)c1ccc(-c2cc(-c3ccc(Cl)s3)on2)cc1)C(=O)O` [Example C-79], the concentration for half-maximal inhibition (IC50) amounted to 0.0008 µM against MMP-12 and 0.00286 µM at MMP-8.

For `CC(C)C[C@H](NS(=O)(=O)c1ccc(-c2cc(-c3ccc4c(c3)OCO4)on2)cc1)C(=O)O` [Example C-86], the IC50 on MMP-12 was found to be 0.000545 µM; at MMP-8 it was 0.00478 µM.

Take `CC(C)C[C@H](NS(=O)(=O)c1ccc(-c2cc(-c3ccc(Cl)c(Cl)c3)on2)cc1)C(=O)O` [Example C-88]: the IC50 amounted to 0.000184 µM against MMP-12 and 0.00437 µM at MMP-8.

Regarding `CC(C)C[C@H](NS(=O)(=O)c1ccc(-c2cc(-c3ccc4c(c3)CCO4)on2)cc1)C(=O)O` [Example C-91], the values for the IC50 against MMP-12 and at MMP-8 were 0.000184 µM and 0.00108 µM, respectively.

In the case of `CCc1ccc(-c2cc(-c3ccc(S(=O)(=O)N[C@H](C(=O)O)C(C)CC)cc3)no2)cc1` (some centres unmarked) [Example C-95], the IC50 at MMP-12 worked out at 0.000172 µM; against MMP-13, 0.000702 µM.

Consider `CCC(C)[C@H](NS(=O)(=O)c1ccc(-c2cc(-c3ccc(OC)cc3)on2)cc1)C(=O)O` (some centres unmarked) [Example C-96], for which the IC50 came out at 0.000228 µM on MMP-12 and 0.00229 µM against MMP-8.

For `CCC(C)[C@H](NS(=O)(=O)c1ccc(-c2cc(-c3ccc(C)s3)on2)cc1)C(=O)O` (some centres unmarked) [Example C-98], the IC50 on MMP-12 was found to be 0.000629 µM; on MMP-8 it was 0.00103 µM.

For `CCc1ccc(-c2cc(-c3ccc(S(=O)(=O)N[C@H](C(=O)O)C(C)CC)cc3)no2)s1` (some centres unmarked) [Example C-99], the IC50 against MMP-12 is 0.000649 µM; at MMP-13, 0.000971 µM.

Compound `CCC(C)[C@H](NS(=O)(=O)c1ccc(-c2cc(-c3ccc(Cl)s3)on2)cc1)C(=O)O` (some centres unmarked) [Example C-100] yielded an IC50 against MMP-8 of 0.00111 µM.

For `CCC(C)[C@H](NS(=O)(=O)c1ccc(-c2cc(-c3ccc(OC(F)(F)F)cc3)on2)cc1)C(=O)O` (some centres unmarked) [Example C-102], the IC50 is 0.00014 µM against MMP-12 and 0.000837 µM against MMP-13.

For the compound `CCC(C)[C@H](NS(=O)(=O)c1ccc(-c2cc(-c3ccc(Cl)c(Cl)c3)on2)cc1)C(=O)O` (some centres unmarked) [Example C-104], the IC50 stood at 0.000281 µM against MMP-12 and 0.00489 µM against MMP-8.

In turn, `Cc1ccc(-c2cc(-c3ccc(S(=O)(=O)N[C@@H](C(=O)O)C(C)(C)C)cc3)no2)s1` [Example C-110] displayed an IC50 at MMP-8 of 0.00252 µM.

Turning to `CCc1ccc(-c2cc(-c3ccc(S(=O)(=O)N[C@H](CC(=O)O)C(=O)O)cc3)no2)cc1` [Example C-113], at MMP-13, the IC50 came out at 0.000733 µM.

Take `CCCc1ccc(-c2cc(-c3ccc(S(=O)(=O)N[C@H](CC(=O)O)C(=O)O)cc3)no2)cc1` [Example C-114]: the IC50 amounted to 0.000578 µM against MMP-12 and 0.000223 µM at MMP-13.

`O=C(O)C[C@@H](NS(=O)(=O)c1ccc(-c2cc(-c3ccc(C(F)(F)F)cc3)on2)cc1)C(=O)O` [Example C-115] came in with an IC50 at MMP-13 of 0.000643 µM.

`Cc1ccc(-c2cc(-c3ccc(S(=O)(=O)N[C@H](CC(=O)O)C(=O)O)cc3)no2)s1` [Example C-116] gave an IC50 on MMP-8 of 0.0023 µM.
